Measured values taken from patent publication US6414031B1, “Bisoximether derivatives, methods and intermediate products for the production thereof, and their use for combating fungicidal pests and animal pests” (BASF Aktiengesellschaft, priority 1998, dated 2002).

Tests used:
Format in all cases: in vivo
Nephotettix cincticeps [1] = test: Action against Nephotettix cincticeps, contact action (filter disks); conditions: treated filter disks, adult leafhoppers, mortality after 24 hours
Text: (§1) The active ingredients were formulated
(§2) a. as a 0.1% strength solution in acetone or
(§3) b. as a 10% emulsion in a mixture of 70% by weight of cyclohexanone, 20% by weight of Nekanil® LN (Lutensol® AP6, wetter having emulsifying and dispersant action, based on ethoxylated alkylphenols) and 10% by weight of Wettol® EM (non-ionic emulsifier based on ethoxylated castor oil)
(§4) and diluted to give the desired concentration, using acetone in the case of a. and water in the case of b.
Filter disks (Ø 9 cm) were treated with 1 ml of aqueous formulations of the active ingredient and subsequently populated with five adult leafhoppers. The mortality was determined after 24 hours.

Puccinia recondita = test: Curative activity against Puccinia recondita on wheat (leaf rust); conditions: 1 ppm, wheat sprayed 1 day after infection, assessed after 7 days, untreated 90%
Text: as §3, with “The active ingredients, separately or together, were formulated” for “b.”, “[…],” for “cyclohexanone,”, “oil) and diluted with water to give the desired concentration.” for “oil)”
Leaves of wheat seedling cv. “Kanzler” grown in pots were dusted with leaf rust spores (Puccinia recondita). The pots were then placed for 24 hours into a chamber with high atmospheric humidity (90 to 95%) and 20 to 22° C. During this time, the spores germinated and the germ tubes penetrated the leaf tissue. Next day, the infected plants were sprayed to runoff with an aqueous active ingredient preparation made with a stock solution consisting of 10% of active ingredient, 63% of cyclohexanone and 27% of emulsifier. After the spray coating had dried on, the test plants were grown in the greenhouse for 7 days at temperatures between 20 and 22° C. and a relative atmospheric humidity of 65 to 70%. The extent of rust development on the leaves was then determined.

Aphis fabae = test: Action against Aphis fabae, contact action; conditions: infested dwarf beans (Vicia faba), mortality after 24 hours
Text: as §1, §2, §3, §4
Severely infested dwarf beans (Vicia faba) in the four-leaf stage were treated with aqueous formulations of active ingredient. The mortality rate was determined after 24 hours.

Nephotettix cincticeps [2] = test: Action against Nephotettix cincticeps (crop spray experiment); conditions: sprayed rice plants, adult leafhoppers, mortality after 24 hours
Text: as §1, §2, §3, §4
Rice plants grown in pots (plant height approximately 8 cm) were sprayed to runoff point with aqueous formulations of active ingredients. After drying, the plants were populated with 20 adult leafhoppers. The mortality was determined after 24 hours.

Plasmopara viticola = test: Activity against Plasmopara viticola on grape leaves (long-term action); conditions: 16 ppm, grape leaves inoculated 7 days after spraying; untreated 85%
Text: as §3, with “The active ingredients, separately or together, were formulated” for “b.”, “[…],” for “cyclohexanone,”, “oil) and diluted with water to give the desired concentration.” for “oil)”
Leaves of grapes cv. “Müller-Thurgaul” in pots were sprayed to runoff with aqueous active ingredient preparations made with a stock solution of 10% active ingredient, 63% cyclohexanone and 27% of emulsifier. In order to be able to assess the long-term action of the substances, the spray coating was allowed to dry off and the plants were then placed in the greenhouse for 7 days. Only then were the leaves inoculated with an aqueous zoospore suspension of Plasmopara viticola. Then, the vines were first placed for 48 hours into a water-vapor-saturated chamber at 24° C. and then for 5 days in the greenhouse at temperatures between 20 and 30° C. After this time, the plants were returned to a humid chamber for 16 hours to accelerate sporangiophore eruption for 16 hours. The extent of the disease development on the undersides of the leaves was then determined visually.

Row | Structure (SMILES) | limit concentration (lowest concentration with 80 to 100% inhibition or mortality) (Nephotettix cincticeps [1]) | disease level (extent of rust development on the leaves) (Puccinia recondita) | limit concentration (lowest concentration with 80 to 100% inhibition or mortality) (Aphis fabae) | limit concentration (lowest concentration with 80 to 100% inhibition or mortality) (Nephotettix cincticeps [2]) | disease level (undersides of the leaves) (Plasmopara viticola)
1 | COC=C(C(=O)OC)c1ccccc1CON=C(C)C(=NOC)C1CCCCC1 [A] | 0.2 mg | 90% | 100 ppm | 400 ppm | 
2 | CC=C(C(=O)OC)c1ccccc1CON=C(C)C(=NOC)C1CCCCC1 [B] | 0.2 mg |  |  | 400 ppm | 
3 | CON=C(C(=O)OC)c1ccccc1CON=C(C)C(=NOC)C1CCCCC1 [C] |  |  | 100 ppm |  | 
4 | COC=C(C(=O)OC)c1ccccc1CON=C(C)C(=NOC)C1CCC(C)CC1 (centres unmarked) [Compound I-3] | 0.04 mg |  |  |  | 
5 | CC=C(C(=O)OC)c1ccccc1CON=C(C)C(=NOC)C1CCC(C)CC1 (centres unmarked) [Compound I-4] | 0.04 mg |  |  |  | 
6 | CNC(=O)C(=NOC)c1ccccc1CON=C(C)C(=NOC)C1CCCCC1 [D] |  | 90% |  |  | 60%
